The values below come from US6169181A, “Compounds useful to treat retroviral infections” (Pharmacia & Upjohn Company, priority 1998, dated 2001).

Where “and” joins values, the source holds several entries; their conditions need not be identical. Equal values may be shown once. Read-outs that look alike come from different tables or passages of the source.

Assay [1] concerns the target T1, HIV-1 protease (Human immunodeficiency virus type 1 group M subtype B, UniProt P04585). The assay is described as follows: biochemical. The conditions noted are these: for inhibition at 0.123 µM / inhibition at 0.37 µM / inhibition at 1.1 µM / inhibition at 3.3 µM / inhibition at 10 µM / inhibition at 30 µM: read-out: Protease % Inhib. A digest of the protocol: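 A substrate biotinylated at the N-terminal arginine and FITC-labelled at the C-terminal lysine was incubated with HIV-1 protease (10 μl of 0.1 μM) and compound for 1 h in the dark at room temperature. Buffer was 0.1 M sodium acetate pH 5.5, 1.0 M NaCl, 0.05% NP-40. Labelled product was separated from substrate using streptavidin beads and filtration, and the fluorescence gave percent inhibition.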

Assay [2] addresses T1, HIV-1 protease. Nature of the assay: biochemical. As for the experimental part:
The HIV protease screening assay is based on fluorescently labeled substrate which can be resolved from nonlabeled cleavage product using special beads coated with streptavidin. The substrate is biotinylated at the amino terminal arginine and fluorescently labeled with fluorescein isothiocynate (FITC) at the carboxyl terminal lysine. […] Substrate ([…] of 0.2 μM), sample (10 μl of desired concentraion), and enzyme (10 μl of 0.1 μM) are added to a 96 well pandex plate. The assay is run in 0.1 M sodium acetate buffer at pH 5.5 in the presence of 1.0 M sodium chloride and 0.05% NP-40 with incubated in the dark for one hour at room temperature. Strepavidin coated polystyrene beads {40 μl of 0.1% (w/v)} are added and the plate is incubated in the dark for an additional half hour. The labeled cleavage product is separated from the unreacted substrate via filtration and is read on the Idexx screen machine. The data are analyzed by appropriate computer algorithms to ascertain percent inhibition values.
Determination of Ki values utilizes the same materials and equipment employed for percent inhibition studies. Two-fold serial dilutions are made for a given inhibitor from 2, 3 or 4 starting concentrations with a total of 24, 36 or 48 individual inhibitor concentrations. These dilutions are performed utilizing the BioMek robotics system. The assay consists of 10 μL of 40 nM HIV-1 protease, 10 μL of the various inhibitor concentrations, and 20 μL of 200 μM substrate (40 μL total). The reaction is allowed to proceed for 90 min at room temperature, terminated with 40 μL of avidin beads and processed (supra vide). An inhibitor with a known K; is run in parallel to verify the validity of the assay. The data is processed utilizing a computer program employing a nonlinear least square analysis of the data to generate the Ki values.

The mark [3] stands for this setting: Table I, read-out: HIV Protease FITC Assay Ki.
Setting [4] is: Table II, enzyme HIV-1, DOSE 0.123 (unit not given).
Setting [5] is: Table II, enzyme HIV-1, DOSE 0.370 (unit not given).
[6] abbreviates: Table II, enzyme HIV-1, DOSE 1.100 (unit not given).
[7] abbreviates: Table II, enzyme HIV-1, DOSE 3.300 (unit not given).
[8] abbreviates: Table II, enzyme HIV-1, DOSE 10.000 (unit not given).
[9] abbreviates: Table II, enzyme HIV-1, DOSE 30.000 (unit not given).
Setting [10] is: Table II, enzyme HIV-1, read-out: FITC KI.

The Ki is a measure of affinity in units of concentration, obtained from inhibition or displacement.

On to `CC[C@@H](Cc1ccccc1)c1cc(O)c(C(c2cccc(NS(=O)(=O)c3cn(C)cn3)c2)C2CC2)c(=O)o1` (single isomer, unassigned) [Example 140, N-(3-(R or S)-{Cyclopropyl-[6-(1-(S)-ethylphenethyl)-4-hydroxy-2-oxo-2H-pyran-3-yl]-methyl}-phenyl)-1-methyl-1H-imidazole-4-sulfonamide], for which the “PROTEASE % INHIB.” value in assay [1] (Table I, Dose 0.123 μM) stood at 103.22%; in assay [1] (Table I, Dose 0.370 μM) it was 96.01%; in assay [1] (Table I, Dose 1.100 μM), 107.37%; in assay [1] (Table I, Dose 3.300 μM) it was 112.51%; in assay [1] (Table I, Dose 10.000 μM) it was 112.53%; in assay [1] (Table I, Dose 30.000 μM), 119.14%. Also, in assay [2] (setting [3]), the Ki came to 1.44 nM.

`CC[C@H](Cc1ccccc1)c1cc(O)c(C(c2cccc(NS(=O)(=O)c3ccccn3)c2)C2CC2)c(=O)o1` (single isomer, unassigned) [Example 141, N-(3-(R or S)-{Cyclopropyl-[6-(1-(R)-ethylphenethyl)-4-hydroxy-2-oxo-2H-pyran-3-yl]-methyl}-phenyl)-2-pyridinesulfonamide]: the inhibition at 0.123 µM in assay [1] (Table I, Dose 0.123 μM) came to 78.7%. The inhibition at 0.37 µM in assay [1] (Table I, Dose 0.370 μM) was 88.7%. In addition, in assay [1] (Table I, Dose 1.100 μM), the inhibition at 1.1 µM was 92%. In addition, the inhibition at 3.3 µM in assay [1] (Table I, Dose 3.300 μM) was 88.3%. In addition, the inhibition at 10 µM in assay [1] (Table I, Dose 10.000 μM) is 97.8%. Also, the inhibition at 30 µM in assay [1] (Table I, Dose 30.000 μM) came out at 98.5%. Also, the Ki in assay [2] (setting [3]) stood at 1.4 nM.

In the case of `CC[C@H](Cc1ccccc1)c1cc(O)c(C(c2cccc(NS(=O)(=O)c3ccccn3)c2)C2CC2)c(=O)o1` (single isomer, unassigned) [Example 142, N-(3-(R or S)-{Cyclopropyl-[6-(1-(R)-ethylphenethyl)-4-hydroxy-2-oxo-2H-pyran-3-yl]-methyl}-phenyl)-2-pyridinesulfonamide], the “PROTEASE % INHIB.” value in assay [1] (Table I, Dose 0.123 μM) is recorded as 78.01%; in assay [1] (Table I, Dose 0.370 μM), 92.52%; in assay [1] (Table I, Dose 1.100 μM), 106.64%; in assay [1] (Table I, Dose 3.300 μM), 105.15%; in assay [1] (Table I, Dose 10.000 μM) it was 110.58%; in assay [1] (Table I, Dose 30.000 μM), 106.77%. Further, the Ki in assay [2] (setting [3]) was found to be 1.6 nM.

With `CC[C@H](Cc1ccccc1)c1cc(O)c(C(c2cccc(NS(=O)(=O)c3nccn3C)c2)C2CC2)c(=O)o1` (single isomer, unassigned) [Example 143, N-(3-(R or S)-{Cyclopropyl-[6-(1-(R)-ethylphenethyl)-4-hydroxy-2-oxo-2H-pyran-3-yl]-methyl}-phenyl)-1-methyl-1H-imidazole-2-sulfonamide], the inhibition at 0.123 µM in assay [1] (Table I, Dose 0.123 μM) was determined as 80.8%. Moreover, in assay [1] (Table I, Dose 0.370 μM), the inhibition at 0.37 µM was 97.7%. Besides, the inhibition at 1.1 µM in assay [1] (Table I, Dose 1.100 μM) is 105%. In addition, the inhibition at 3.3 µM in assay [1] (Table I, Dose 3.300 μM) is 102%. In addition, the inhibition at 10 µM in assay [1] (Table I, Dose 10.000 μM) worked out at 101%. In assay [1] (Table I, Dose 30.000 μM), the inhibition at 30 µM is 103%. Also, the Ki in assay [2] (setting [3]) came to 0.8 nM.

`CC[C@H](Cc1ccccc1)c1cc(O)c(C(c2cccc(NS(=O)(=O)c3nccn3C)c2)C2CC2)c(=O)o1` (single isomer, unassigned) [Example 144, N-(3-(R or S)-{Cyclopropyl-[6-(1-(R)-ethylphenethyl)-4-hydroxy-2-oxo-2H-pyran-3-yl]-methyl}-phenyl)-1-methyl-1H-imidazole-2-sulfonamide]: the “PROTEASE % INHIB.” value in assay [1] (Table I, Dose 0.123 μM) is listed as 80.58%; in assay [1] (Table I, Dose 0.370 μM) it was 87.39%; in assay [1] (Table I, Dose 1.100 μM) it was 93.82%; in assay [1] (Table I, Dose 3.300 μM), 100.01%; in assay [1] (Table I, Dose 10.000 μM), 98.12%; in assay [1] (Table I, Dose 30.000 μM), 95.88%. For the same compound, the Ki in assay [2] (setting [3]) was found to be 1.2 nM.

Consider `CC[C@H](Cc1ccccc1)c1cc(O)c(C(c2cccc(NS(=O)(=O)c3ccc(C#N)cc3)c2)C2CC2)c(=O)o1` (single isomer, unassigned) [Example 148, N-(3-(R or S)-{Cyclopropyl-[6-(1-(R)-ethylphenethyl)-4-hydroxy-2-oxo-2H-pyran-3-yl]-methyl}-phenyl)-4-cyanobenzenesulfonamide], for which the inhibition at 0.123 µM in assay [1] (Table I, Dose 0.123 μM) stood at 81.3%. In addition, the inhibition at 0.37 µM in assay [1] (Table I, Dose 0.370 μM) was found to be 91.7%. Moreover, the inhibition at 1.1 µM in assay [1] (Table I, Dose 1.100 μM) is 95.6%. In addition, in assay [1] (Table I, Dose 3.300 μM), the inhibition at 3.3 µM came to 90%. In addition, the inhibition at 10 µM in assay [1] (Table I, Dose 10.000 μM) is 99.2%. In addition, the inhibition at 30 µM in assay [1] (Table I, Dose 30.000 μM) is 93.5%. In assay [2] (setting [3]), the Ki is 4.77 nM and 18.1 nM.

Regarding `CCC[C@@]1(CCc2ccc(F)cc2)CC(O)=C([C@H](c2cccc(NS(=O)(=O)c3cn(C)cn3)c2)C(C)(C)C)C(=O)O1` (single isomer, unassigned) [Example 351, N-[3-{1(S or R)-(4-Hydroxy-5,6-dihydro-2-oxo-6(R or S)-(2-(4-fluorophenyl)ethyl)-6-propyl-2H-pyran-3-yl)-2,2-dimethyl-propyl}phenyl]-1-methyl-1H-imidazole-4-sulfonamide], the “PROTEASE % INHIB.” value in assay [1] (setting [4]) is under 10%; in assay [1] (setting [5]), under 10%; in assay [1] (setting [6]) it was 25.4%; in assay [1] (setting [7]), 55.11%; in assay [1] (setting [8]), 78.53%; in assay [1] (setting [9]), 90.55%. Also, in assay [2] (setting [10]), the Ki worked out at 558 nM.

Consider `CCC[C@]1(CCc2ccc(F)cc2)CC(O)=C([C@H](c2cccc(NS(=O)(=O)c3cn(C)cn3)c2)C(C)(C)C)C(=O)O1` (single isomer, unassigned) [Example 352, N-[3-{1(S or R)-(4-Hydroxy-5,6-dihydro-2-oxo-6(S or R)-(2-(4-fluorophenyl)ethyl)-6-propyl-2H-pyran-3-yl)-2,2-dimethyl-propyl}phenyl]-1-methyl-1H-imidazole-4-sulfonamide], for which the “PROTEASE % INHIB.” value is under 10% in assay [1] (setting [4]); 25.31% in assay [1] (setting [5]); 47.78% in assay [1] (setting [6]); 74.99% in assay [1] (setting [7]); 85.86% in assay [1] (setting [8]); 87.82% in assay [1] (setting [9]). Besides, in assay [2] (setting [10]), the Ki came out at 168 nM.

Regarding `CC(C)(C)C(C1=C(O)CC(CCc2ccccc2)(CCc2ccccc2)OC1=O)c1cccc(NS(=O)(=O)c2ccc(N)cn2)c1` (single isomer, unassigned) [Example 355, N-[3-{1(R or S)-(4-Hydroxy-5,6-dihydro-2-oxo-6,6-bis(2-phenylethyl)-2H-pyran-3-yl)-2,2-dimethylpropyl}phenyl]-5-aminopyridine-2-sulfonamide], the “PROTEASE % INHIB.” value is listed as under 10% in assay [1] (setting [4]); under 10% in assay [1] (setting [5]); under 10% in assay [1] (setting [6]); 20.72% in assay [1] (setting [7]); 46.66% in assay [1] (setting [8]); 67.82% in assay [1] (setting [9]). In addition, the Ki in assay [2] (setting [10]) is 700 nM.

As to `CCCC1CCCCCc2c1oc(=O)c(C(c1cccc(NS(=O)(=O)c3ccccc3)c1)C1CC1)c2O` (stereo not shown) [Example 1, N-[3-[cyclopropyl(5,6,7,8,9,10-hexahydro-4-hydroxy-2-oxo-10-propyl-2H-cycloocta[b]pyran-3-yl)methyl]phenyl]benzenesulfonamide], the inhibition at 0.123 µM in assay [1] (Table I, Dose 0.123 μM) amounted to 75.4%. Moreover, the inhibition at 0.37 µM in assay [1] (Table I, Dose 0.370 μM) stood at 87.3%. In addition, the inhibition at 1.1 µM in assay [1] (Table I, Dose 1.100 μM) is 97.1%. The inhibition at 3.3 µM in assay [1] (Table I, Dose 3.300 μM) stood at 96.8%. Also, the inhibition at 10 µM in assay [1] (Table I, Dose 10.000 μM) is 99.7%. For the same compound, the inhibition at 30 µM in assay [1] (Table I, Dose 30.000 μM) is 97.4%. Further, the Ki in assay [2] (setting [3]) is 15 nM.
